From patent publication US20250136606A1, “MODULATORS OF TRPML, THEIR COMPOSITIONS AND METHODS OF USE” (Caraway Therapeutics, Inc., priority 2021, published 2025)
Read-outs that look alike come from different tables or passages of the source.

Columns and labels:
Assay type in all cases: cell-based
TRPML3 = target: T1, TRPML3 (Homo sapiens, UniProt Q8TDD5); experiment: Fluorescent TRPML3 assay (performed as for TRPML1, substituting the TRPML3 subtype)
T1 construct: expressed in transfected cells
T1 sequence (Q8TDD5 1-553): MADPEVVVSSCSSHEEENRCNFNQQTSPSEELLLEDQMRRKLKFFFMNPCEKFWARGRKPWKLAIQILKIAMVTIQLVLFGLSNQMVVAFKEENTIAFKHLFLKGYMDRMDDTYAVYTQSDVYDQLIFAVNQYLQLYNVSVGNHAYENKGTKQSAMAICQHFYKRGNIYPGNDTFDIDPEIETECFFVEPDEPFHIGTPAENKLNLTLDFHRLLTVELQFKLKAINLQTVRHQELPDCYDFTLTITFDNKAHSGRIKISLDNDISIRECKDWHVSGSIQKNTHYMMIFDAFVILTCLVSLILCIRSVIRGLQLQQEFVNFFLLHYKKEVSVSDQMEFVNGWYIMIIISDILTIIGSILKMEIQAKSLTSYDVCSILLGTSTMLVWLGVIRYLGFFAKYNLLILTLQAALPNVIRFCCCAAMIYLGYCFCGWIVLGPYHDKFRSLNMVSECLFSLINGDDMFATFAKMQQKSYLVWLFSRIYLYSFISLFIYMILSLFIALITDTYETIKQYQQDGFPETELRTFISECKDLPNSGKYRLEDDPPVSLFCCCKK
Procedure, shortened: (§1)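 Doxycycline-induced (0.5 ug/mL) HEK-293 Trex cells stably expressing surface-directed mutant channel were loaded with 1 micromolar Fluo4-AM, resuspended in Ringer's with 10 mM calcium and added to compound plates. Fluorescence (ex 480, em 540 nm) gave percent activity versus on-plate controls; EC50 by non-linear regression.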

TRPML1 = TRPML1 (Homo sapiens, UniProt Q9GZU1); experiment: Fluorescent TRPML1 assay (Fluo4-AM calcium fluorescence in doxycycline-induced HEK-293 Trex cells)
Procedure, shortened: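 First, expression of surface-targeted mutant human TRPML1 is induced in HEK-293 Trex cells with 0.5 ug/mL doxycycline the day before. Next, cells take up 1 micromolar Fluo4-AM in Ringer's with 0.1% Pluronic. Finally, they are added to compounds (6 nanomolar–20 micromolar final) in 10 mM calcium Ringer's and fluorescence is read.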

TRPML2 = target: T2, TRPML2 (Homo sapiens, UniProt Q8IZK6); experiment: Fluorescent TRPML2 assay (performed as for TRPML1, substituting the TRPML2 subtype)
T2 construct: expressed in transfected cells
T2 sequence (Q8IZK6 1-566): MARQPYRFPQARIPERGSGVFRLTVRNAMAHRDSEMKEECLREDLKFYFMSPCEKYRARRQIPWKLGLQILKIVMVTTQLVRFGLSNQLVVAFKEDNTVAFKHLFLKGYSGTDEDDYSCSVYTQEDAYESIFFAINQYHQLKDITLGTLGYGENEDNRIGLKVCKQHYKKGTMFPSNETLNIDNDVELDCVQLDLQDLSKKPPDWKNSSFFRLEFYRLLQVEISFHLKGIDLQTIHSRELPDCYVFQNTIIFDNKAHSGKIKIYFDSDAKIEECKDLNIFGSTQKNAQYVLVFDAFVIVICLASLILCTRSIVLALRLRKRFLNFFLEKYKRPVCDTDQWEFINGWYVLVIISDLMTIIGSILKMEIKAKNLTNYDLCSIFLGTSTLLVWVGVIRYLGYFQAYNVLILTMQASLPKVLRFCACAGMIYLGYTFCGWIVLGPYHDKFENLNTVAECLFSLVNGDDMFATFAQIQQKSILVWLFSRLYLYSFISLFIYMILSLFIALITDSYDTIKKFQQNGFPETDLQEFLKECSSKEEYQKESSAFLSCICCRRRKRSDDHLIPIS
Procedure, shortened: as §1

TRPML1, sequence (Q9GZU1 whole entry L15A/L16A/L577A/L578A, form open): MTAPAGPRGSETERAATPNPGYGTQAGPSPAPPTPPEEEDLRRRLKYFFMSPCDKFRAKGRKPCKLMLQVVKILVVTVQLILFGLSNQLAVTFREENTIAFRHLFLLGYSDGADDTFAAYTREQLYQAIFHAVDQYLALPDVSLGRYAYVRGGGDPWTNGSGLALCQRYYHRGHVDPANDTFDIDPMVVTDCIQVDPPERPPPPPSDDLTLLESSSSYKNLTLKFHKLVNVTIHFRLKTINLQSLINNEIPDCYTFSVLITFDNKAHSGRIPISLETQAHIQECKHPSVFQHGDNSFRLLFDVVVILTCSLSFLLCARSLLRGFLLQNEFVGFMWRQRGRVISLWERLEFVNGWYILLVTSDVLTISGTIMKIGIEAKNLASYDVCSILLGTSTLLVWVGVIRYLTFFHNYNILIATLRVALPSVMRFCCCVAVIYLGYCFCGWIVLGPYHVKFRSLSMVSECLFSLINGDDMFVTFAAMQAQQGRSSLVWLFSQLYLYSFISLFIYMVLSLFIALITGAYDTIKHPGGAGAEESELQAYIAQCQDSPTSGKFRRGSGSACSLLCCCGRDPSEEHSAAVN

EC50 (TRPML3; fluorescent calcium assay) [nM]	EC50 (TRPML1; fluorescent calcium assay) [nM]	EC50 (TRPML2; fluorescent calcium assay) [nM]	EC50 (TRPML3) [nM]	EC50 (TRPML1) [nM]	EC50 (TRPML2) [nM]	Compound
< 100	100 to 500	100 to 500	–	–	–	Cc1c(Cl)cccc1-n1cc(-c2ccccn2)c2c(N3CCN(C(=O)OC(C)(C)C)CC3C)ncnc21 (stereo not drawn) [Compound 160, tert-butyl 4-(7-(3-chloro-2-methylphenyl)-5-(pyridin-2-yl)-7H-pyrrolo[2,3-d]pyrimidin-4-yl)-3-methylpiperazine-1-carboxylate]
< 100	< 100	100 to 500	–	–	–	C[C@@H]1CN(c2ncnc3c2c(C2CC2)cn3-c2cc(F)cc(F)c2)CCN1C(=O)OC(C)(C)C [Compound 108, tert-butyl (R)-4-(5-cyclopropyl-7-(3,5-difluorophenyl)-7H-pyrrolo[2,3-d]pyrimidin-4-yl)-2-methylpiperazine-1-carboxylate]
< 100	< 100	100 to 500	–	–	–	C[C@H]1CN(C(=O)OC(C)(C)C)CCN1c1ncnc2c1c(N1CCCC1)cn2-c1cc(F)cc(F)c1 [Compound 253, tert-butyl (S)-4-(7-(3,5-difluorophenyl)-5-(pyrrolidin-1-yl)-7H-pyrrolo[2,3-d]pyrimidin-4-yl)-3-methylpiperazine-1-carboxylate]
–	–	–	< 100	< 100	< 100	CC1CC1c1cn(-c2cc(C#N)ccn2)c2ncnc(N3CCN(C(=O)OC(C)(C)C)C[C@@H]3C)c12 (stereo partly drawn) [Compound 615, tert-butyl (3S)-4-(7-(4-cyanopyridin-2-yl)-5-(2-methylcyclopropyl)-7H-pyrrolo[2,3-d]pyrimidin-4-yl)-3-methylpiperazine-1-carboxylate]
–	–	–	< 100	< 100	100 to 500	Cc1cn(-c2cccc(C(F)(F)F)c2)c2ncnc(N3C[C@@H](C)N(C(=O)OC(C)(C)C)C[C@@H]3C)c12 [Compound 667, tert-butyl (2R,5S)-2,5-dimethyl-4-(5-methyl-7-(3-(trifluoromethyl)phenyl)-7H-pyrrolo[2,3-d]pyrimidin-4-yl)piperazine-1-carboxylate]
< 100	< 100	100 to 500	–	–	–	C[C@H]1CN(C(=O)OC(C)(C)C(F)(F)F)CCN1c1ncnc2c1c(-c1cnn(C)c1)cn2-c1cc(C#N)ccn1 [Compound 330, 1,1,1-trifluoro-2-methylpropan-2-yl (S)-4-(7-(4-cyanopyridin-2-yl)-5-(1-methyl-1H-pyrazol-4-yl)-7H-pyrrolo[2,3-d]pyrimidin-4-yl)-3-methylpiperazine-1-carboxylate]
< 100	100 to 500	> 2000	–	–	–	C[C@H]1CN(C(=O)OC(C)(C)C)CCN1c1ncnc2c1c(N1CCCC1)cn2C1CCCC(F)(F)C1 (stereo partly drawn) [Compound 401, tert-butyl (3S)-4-(7-(3,3-difluorocyclohexyl)-5-(pyrrolidin-1-yl)-7H-pyrrolo[2,3-d]pyrimidin-4-yl)-3-methylpiperazine-1-carboxylate]
–	–	–	< 100	< 100	< 100	Cc1cn(-c2cccc(C#N)c2)c2ncnc(N3CCN(C(=O)OC(C)(C)C)C[C@@H]3C)c12 [Compound 686, tert-butyl (S)-4-(7-(3-cyanophenyl)-5-methyl-7H-pyrrolo[2,3-d]pyrimidin-4-yl)-3-methylpiperazine-1-carboxylate]
< 100	< 100	< 100	–	–	–	C[C@H]1CN(C(=O)OC(C)(C)C)CCN1c1ncnc2c1c(N1CCCC1)cn2-c1cccc(Cl)c1 [Compound 210, tert-Butyl (S)-4-(7-(3-chlorophenyl)-5-(pyrrolidin-1-yl)-7H-pyrrolo[2,3-d]pyrimidin-4-yl)-3-methylpiperazine-1-carboxylate]
–	–	–	< 100	< 100	500 to 2000	[2H]C([2H])([2H])[C@@H]1CN(c2ncnc3c2c(C(F)F)cn3-c2cc(C#N)ccn2)[C@@H](C)CN1C(=O)OC(C)(C)C [Compound 610, tert-butyl (2R,5S)-4-(7-(4-cyanopyridin-2-yl)-5-(difluoromethyl)-7H-pyrrolo[2,3-d]pyrimidin-4-yl)-5-methyl-2-(methyl-d3)piperazine-1-carboxylate]
100 to 500	500 to 2000	> 2000	–	–	–	C[C@H]1CN(C(=O)OC(C)(C)C)CCN1c1ncnc2c1c(CN1CCCC1)cn2-c1cccc(Cl)c1 [Compound 337, tert-butyl-(S)-4-(7-(3-chlorophenyl)-5-(pyrrolidin-1-ylmethyl)-7H-pyrrolo[2,3-d]pyrimidin-4-yl)-3-methylpiperazine-1-carboxylate]
–	–	–	< 100	< 100	< 100	CCc1cn(-c2cc(C(F)(F)F)ccn2)c2ncnc(N3C[C@@H](C)N(C(=O)OC(C)(C)C)C[C@@H]3C)c12 [Compound 696, tert-butyl (2R,5S)-4-(5-ethyl-7-(4-(trifluoromethyl)pyridin-2-yl)-7H-pyrrolo[2,3-d]pyrimidin-4-yl)-2,5-dimethylpiperazine-1-carboxylate]
< 100	100 to 500	500 to 2000	–	–	–	Cc1nccnc1-c1cn(-c2ccc(F)c(F)c2)c2ncnc(N3C[C@@H](C)N(C(=O)OC(C)(C)C)C[C@@H]3C)c12 [Compound 180, tert-butyl (2R,5S)-4-(7-(3,4-difluorophenyl)-5-(3-methylpyrazin-2-yl)-7H-pyrrolo[2,3-d]pyrimidin-4-yl)-2,5-dimethylpiperazine-1-carboxylate]
–	–	–	< 100	< 100	< 100	C[C@H]1CN(C(=O)OC(C)(C)C)CCN1c1ncnc2c1c(N1CCC1)cn2-c1cccc(F)c1 [Compound 636, tert-butyl (S)-4-(5-(azetidin-1-yl)-7-(3-fluorophenyl)-7H-pyrrolo[2,3-d]pyrimidin-4-yl)-3-methylpiperazine-1-carboxylate]
100 to 500	100 to 500	500 to 2000	–	–	–	C[C@H]1CN(C(=O)OC(C)(C)C)CCN1c1ncnc2c1c(N1CCOCC1)cn2-c1cc(F)cc(F)c1 [Compound 228, tert-Butyl (S)-4-(7-(3,5-difluorophenyl)-5-morpholino-7H-pyrrolo[2,3-d]pyrimidin-4-yl)-3-methylpiperazine-1-carboxylate]
> 2000	500 to 2000	> 2000	–	–	–	CC(C)(C)OC(=O)N1CCN(c2nccc3c2c(-c2ccccc2F)cn3-c2cncnc2)CC1 [Compound 171, tert-butyl 4-(3-(2-fluorophenyl)-1-(pyrimidin-5-yl)-1H-pyrrolo[3,2-c]pyridin-4-yl)piperazine-1-carboxylate]
< 100	< 100	< 100	–	–	–	C[C@@H]1CN(c2ncnc3c2c(N2CCC2)cn3-c2cc(C#N)ccn2)CCN1C(=O)OC(C)(C)C [Compound 388, tert-butyl (R)-4-(5-(azetidin-1-yl)-7-(4-cyanopyridin-2-yl)-7H-pyrrolo[2,3-d]pyrimidin-4-yl)-2-methylpiperazine-1-carboxylate]
–	–	–	100 to 500	100 to 500	500 to 2000	Cc1cn(-c2ccccc2)c2ncnc(N3C[C@@H](C)N(C(=O)OC(C)(C)C)C[C@@H]3C)c12 [Compound 668, tert-butyl (2R,5S)-2,5-dimethyl-4-(5-methyl-7-phenyl-7H-pyrrolo[2,3-d]pyrimidin-4-yl)piperazine-1-carboxylate]
< 100	< 100	< 100	–	–	–	Cc1ccnc(-n2cc(-c3ccccc3F)c3c(N4C[C@@H](C)N(C(=O)OC(C)(C)C)C[C@@H]4C)ncnc32)c1 [Compound 136, tert-butyl (2R,5S)-4-(5-(2-fluorophenyl)-7-(4-methylpyridin-2-yl)-7H-pyrrolo[2,3-d]pyrimidin-4-yl)-2,5-dimethylpiperazine-1-carboxylate]
